Measured values reported in ChEMBL document CHEMBL5723035, “Affinity Biochemical Literature for EUbOPEN Chemogenomic Library” (2024).
Values belong to the compound of their own block, whether it stands above or below them. Non-standard residues stand in square brackets, D forms with d. Residues, ends and D or L forms follow the SMILES beside them. *: point of attachment. Benzoyl(4-OPh) = O=C(c1ccc(Oc2ccccc2)cc1)*; Lys(Et2) = CCN(CC)CCCC[C@H](N)C(=O)O; d(aIle) = CC[C@H](C)[C@@H](N)C(=O)O; Gly(cPent) = N[C@H](C(=O)O)C1CCCC1; NH(propargyl) = C#CCN*

How the values were obtained:
[1] = biological target: 3',5'-cyclic-AMP phosphodiesterase 4A (Homo sapiens, UniProt P27815); assay: Affinity Biochemical interaction: (fluorescence polarisation assay, inhibition of enzyme activity) EUB0002577a PDE4A; assay type: functional; set-up: mode of action Inhibitor, recommended concentration 1 uM
[2] = biological target: 3',5'-cyclic-AMP phosphodiesterase 4C (Homo sapiens, UniProt Q08493); assay: Affinity Biochemical interaction: (fluorescence polarisation assay, inhibition of enzyme activity) EUB0002577a PDE4C; assay type: functional; set-up: mode of action Inhibitor, recommended concentration 1 uM
3',5'-cyclic-AMP phosphodiesterase 4C, sequence (Q08493 whole entry): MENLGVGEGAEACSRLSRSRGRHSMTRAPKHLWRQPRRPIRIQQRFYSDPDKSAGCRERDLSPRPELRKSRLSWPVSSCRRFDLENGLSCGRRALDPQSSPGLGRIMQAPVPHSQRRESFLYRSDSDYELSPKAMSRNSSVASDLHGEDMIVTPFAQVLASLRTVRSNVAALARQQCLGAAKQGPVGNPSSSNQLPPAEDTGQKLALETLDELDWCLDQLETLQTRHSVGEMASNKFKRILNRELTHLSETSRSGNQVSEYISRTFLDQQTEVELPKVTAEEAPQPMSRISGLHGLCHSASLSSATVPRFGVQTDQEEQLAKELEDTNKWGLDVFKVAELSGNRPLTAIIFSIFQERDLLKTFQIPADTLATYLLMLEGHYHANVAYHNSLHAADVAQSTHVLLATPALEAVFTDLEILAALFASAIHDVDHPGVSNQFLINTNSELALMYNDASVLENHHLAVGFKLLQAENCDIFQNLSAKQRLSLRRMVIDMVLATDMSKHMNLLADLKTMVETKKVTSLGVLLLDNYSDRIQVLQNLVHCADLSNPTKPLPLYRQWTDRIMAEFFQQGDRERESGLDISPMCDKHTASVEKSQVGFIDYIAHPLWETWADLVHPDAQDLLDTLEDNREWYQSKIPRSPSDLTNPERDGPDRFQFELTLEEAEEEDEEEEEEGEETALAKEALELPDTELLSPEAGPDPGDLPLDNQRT

[3] = biological target: T1, Equilibrative nucleoside transporter 1 (Homo sapiens, UniProt Q99808); assay: Affinity Biochemical interaction: (inhibition of [3H]nitrobenzylthioinosine binding to SLC29A1 in membranes) EUB0002560a SLC29A1; assay type: cell membranes; set-up: mode of action Inhibitor, recommended concentration 1 uM
T1 sequence (Q99808 whole entry): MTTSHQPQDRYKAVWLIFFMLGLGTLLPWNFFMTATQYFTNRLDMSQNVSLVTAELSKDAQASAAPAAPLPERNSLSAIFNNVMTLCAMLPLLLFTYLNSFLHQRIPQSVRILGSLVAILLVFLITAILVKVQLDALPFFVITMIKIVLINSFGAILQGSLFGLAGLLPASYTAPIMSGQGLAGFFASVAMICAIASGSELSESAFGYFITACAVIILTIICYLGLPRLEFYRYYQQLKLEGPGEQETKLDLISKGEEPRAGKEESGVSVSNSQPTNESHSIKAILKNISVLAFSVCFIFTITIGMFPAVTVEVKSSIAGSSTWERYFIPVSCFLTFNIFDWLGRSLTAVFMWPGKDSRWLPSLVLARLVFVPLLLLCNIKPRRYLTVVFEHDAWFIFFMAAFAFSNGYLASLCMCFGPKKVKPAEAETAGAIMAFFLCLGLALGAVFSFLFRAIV

[4] = biological target: T1, Equilibrative nucleoside transporter 1; assay: Affinity Biochemical interaction: (radioligand binding assay, inhibition of [3H]S-(4-Nitrobenzyl)-6-thioinosine binding to target) EUB0002560a SLC29A1; set-up: mode of action Inhibitor, recommended concentration 1 uM
[5] = biological target: Triacylglycerol hydrolase DDHD2 (Homo sapiens, UniProt O94830); assay: Affinity Biochemical interaction: (Gel-based competitive activity-based protein profiling with HT-01 probe and membranes) EUB0002612a DDHD2; assay type: functional, cell membranes; set-up: mode of action Inhibitor, recommended concentration 1 uM
[6] = biological target: T2, Chromobox protein homolog 8 (Homo sapiens, UniProt Q9HC52); assay: Affinity Biochemical interaction: (Thermal Shift Assay) EUB0002326a CBX8; set-up: mode of action Inhibitor, recommended concentration 1 uM
T2 sequence (Q9HC52 whole entry): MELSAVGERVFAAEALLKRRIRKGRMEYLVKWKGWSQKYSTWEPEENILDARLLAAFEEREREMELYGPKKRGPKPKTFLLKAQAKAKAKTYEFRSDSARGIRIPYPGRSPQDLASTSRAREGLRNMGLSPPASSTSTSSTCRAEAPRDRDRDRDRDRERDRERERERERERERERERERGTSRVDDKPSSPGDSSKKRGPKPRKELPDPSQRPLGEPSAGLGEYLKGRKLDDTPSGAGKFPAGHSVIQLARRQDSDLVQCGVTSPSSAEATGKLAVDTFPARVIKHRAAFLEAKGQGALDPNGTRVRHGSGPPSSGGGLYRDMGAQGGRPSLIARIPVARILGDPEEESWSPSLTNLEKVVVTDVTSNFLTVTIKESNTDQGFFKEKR

[7] = biological target: T2, Chromobox protein homolog 8; assay: Affinity Biochemical interaction: (Fluorescence polarisation (fluorescein conjugated)) EUB0002326a CBX8; assay type: functional; set-up: mode of action Inhibitor, recommended concentration 1 uM
[8] = biological target: T2, Chromobox protein homolog 8; assay: Affinity Biochemical interaction: (MST (fluorescein-conjugated)) EUB0002326a CBX8; set-up: mode of action Inhibitor, recommended concentration 1 uM
[9] = biological target: Ubiquitin carboxyl-terminal hydrolase 14 (Homo sapiens, UniProt P54578)
[10] = biological target: 3',5'-cyclic-AMP phosphodiesterase 4B (Homo sapiens, UniProt Q07343); assay: Affinity Biochemical interaction: (Inhibition of enzyme activity, scintillation proximity assay with radiolabelled [3H]cAMP) EUB0002694a PDE4B; assay type: functional; set-up: mode of action Inhibitor, recommended concentration 1 uM
[11] = biological target: Protein-arginine deiminase type-4 (Homo sapiens, UniProt Q9UM07); assay: Affinity Biochemical interaction: (enzyme inhibition, detection of citrullated histone H3 by either immunoblot with LiC or quantitation or an ELISA-based assay using anti-citrullated histone H3 rabbit polyclonal antibody) EUB0002517a PADI4; assay type: functional; set-up: mode of action Inhibitor, recommended concentration 1 uM
Protein-arginine deiminase type-4, sequence (Q9UM07 whole entry): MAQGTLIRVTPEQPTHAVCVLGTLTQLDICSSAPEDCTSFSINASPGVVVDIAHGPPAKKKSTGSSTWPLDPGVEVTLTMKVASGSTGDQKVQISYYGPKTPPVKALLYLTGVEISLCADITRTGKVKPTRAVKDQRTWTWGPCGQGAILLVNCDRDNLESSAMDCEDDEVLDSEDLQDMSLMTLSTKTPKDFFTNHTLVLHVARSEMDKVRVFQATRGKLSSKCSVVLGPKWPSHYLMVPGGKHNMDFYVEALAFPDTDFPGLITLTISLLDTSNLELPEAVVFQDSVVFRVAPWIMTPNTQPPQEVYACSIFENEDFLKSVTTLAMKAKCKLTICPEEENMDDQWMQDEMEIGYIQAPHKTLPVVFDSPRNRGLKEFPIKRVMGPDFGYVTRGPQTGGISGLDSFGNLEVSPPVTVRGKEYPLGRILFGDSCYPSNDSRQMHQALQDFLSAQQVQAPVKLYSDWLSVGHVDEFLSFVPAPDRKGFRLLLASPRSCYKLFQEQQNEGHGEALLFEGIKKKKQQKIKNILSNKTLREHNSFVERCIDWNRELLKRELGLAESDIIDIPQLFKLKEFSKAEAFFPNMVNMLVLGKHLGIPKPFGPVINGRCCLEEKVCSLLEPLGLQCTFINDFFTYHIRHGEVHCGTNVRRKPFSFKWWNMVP

[12] = biological target: Histone deacetylase 1 (Homo sapiens, UniProt Q13547); assay: Affinity Biochemical interaction: (fluorometric activity assay) EUB0002519a HDAC1; assay type: functional; set-up: mode of action Inhibitor, recommended concentration 1 uM
Histone deacetylase 1, sequence (Q13547 whole entry): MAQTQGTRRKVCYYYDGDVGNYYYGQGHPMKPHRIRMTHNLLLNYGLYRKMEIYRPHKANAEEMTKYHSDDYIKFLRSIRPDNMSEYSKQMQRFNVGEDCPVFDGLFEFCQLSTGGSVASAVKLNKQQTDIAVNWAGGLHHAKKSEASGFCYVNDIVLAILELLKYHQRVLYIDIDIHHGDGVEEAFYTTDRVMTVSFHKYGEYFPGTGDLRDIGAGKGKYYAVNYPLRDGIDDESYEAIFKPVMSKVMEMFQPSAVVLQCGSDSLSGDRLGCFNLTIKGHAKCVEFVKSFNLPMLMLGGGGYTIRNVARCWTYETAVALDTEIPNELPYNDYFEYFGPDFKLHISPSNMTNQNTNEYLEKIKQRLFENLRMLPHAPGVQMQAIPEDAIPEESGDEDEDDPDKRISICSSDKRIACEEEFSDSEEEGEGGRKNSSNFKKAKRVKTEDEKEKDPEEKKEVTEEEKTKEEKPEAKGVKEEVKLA

[13] = biological target: Histone deacetylase 2 (Homo sapiens, UniProt Q92769); assay: Affinity Biochemical interaction: (fluorometric activity assay) EUB0002519a HDAC2; assay type: functional; set-up: mode of action Inhibitor, recommended concentration 1 uM
[14] = biological target: Adenosine kinase (Homo sapiens, UniProt P55263); assay: Affinity Biochemical interaction: (radiochemical assay, inhibition of AK activity in cell supernatants) EUB0002485aCl ADK; assay type: functional, subcellular; set-up: mode of action Inhibitor, recommended concentration 1 uM
Adenosine kinase, sequence (P55263 whole entry): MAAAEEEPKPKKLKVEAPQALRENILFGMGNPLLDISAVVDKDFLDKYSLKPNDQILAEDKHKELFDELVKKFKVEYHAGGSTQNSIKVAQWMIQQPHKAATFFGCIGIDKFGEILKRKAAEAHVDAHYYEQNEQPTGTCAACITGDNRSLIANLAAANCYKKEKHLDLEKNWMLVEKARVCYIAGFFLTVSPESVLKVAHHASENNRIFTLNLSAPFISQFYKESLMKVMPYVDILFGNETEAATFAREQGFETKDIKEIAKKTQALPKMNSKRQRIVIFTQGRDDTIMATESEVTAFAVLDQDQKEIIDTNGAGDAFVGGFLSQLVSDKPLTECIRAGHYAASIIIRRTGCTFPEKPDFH

[15] = biological target: Bromodomain-containing protein 4 (Homo sapiens, UniProt O60885); assay: Affinity Biochemical interaction: (TR-FRET) EUB0002661a BRD4; assay type: functional; set-up: mode of action Inhibitor, recommended concentration 1 uM
[16] = biological target: Dual specificity calcium/calmodulin-dependent 3',5'-cyclic nucleotide phosphodiesterase 1A (Homo sapiens, UniProt P54750); assay: Affinity Biochemical interaction: (inhibition of [3H]cGMP cleavage, scintillation proximity assay) EUB0002562a PDE1A; assay type: functional; set-up: mode of action Inhibitor, recommended concentration 1 uM
[17] = biological target: T3, Breast cancer type 1 susceptibility protein (Homo sapiens, UniProt P38398); assay: Affinity Biochemical interaction: (ITC) EUB0002518a BRCA1; set-up: mode of action Inhibitor, recommended concentration 1 uM
T3 sequence (P38398 whole entry): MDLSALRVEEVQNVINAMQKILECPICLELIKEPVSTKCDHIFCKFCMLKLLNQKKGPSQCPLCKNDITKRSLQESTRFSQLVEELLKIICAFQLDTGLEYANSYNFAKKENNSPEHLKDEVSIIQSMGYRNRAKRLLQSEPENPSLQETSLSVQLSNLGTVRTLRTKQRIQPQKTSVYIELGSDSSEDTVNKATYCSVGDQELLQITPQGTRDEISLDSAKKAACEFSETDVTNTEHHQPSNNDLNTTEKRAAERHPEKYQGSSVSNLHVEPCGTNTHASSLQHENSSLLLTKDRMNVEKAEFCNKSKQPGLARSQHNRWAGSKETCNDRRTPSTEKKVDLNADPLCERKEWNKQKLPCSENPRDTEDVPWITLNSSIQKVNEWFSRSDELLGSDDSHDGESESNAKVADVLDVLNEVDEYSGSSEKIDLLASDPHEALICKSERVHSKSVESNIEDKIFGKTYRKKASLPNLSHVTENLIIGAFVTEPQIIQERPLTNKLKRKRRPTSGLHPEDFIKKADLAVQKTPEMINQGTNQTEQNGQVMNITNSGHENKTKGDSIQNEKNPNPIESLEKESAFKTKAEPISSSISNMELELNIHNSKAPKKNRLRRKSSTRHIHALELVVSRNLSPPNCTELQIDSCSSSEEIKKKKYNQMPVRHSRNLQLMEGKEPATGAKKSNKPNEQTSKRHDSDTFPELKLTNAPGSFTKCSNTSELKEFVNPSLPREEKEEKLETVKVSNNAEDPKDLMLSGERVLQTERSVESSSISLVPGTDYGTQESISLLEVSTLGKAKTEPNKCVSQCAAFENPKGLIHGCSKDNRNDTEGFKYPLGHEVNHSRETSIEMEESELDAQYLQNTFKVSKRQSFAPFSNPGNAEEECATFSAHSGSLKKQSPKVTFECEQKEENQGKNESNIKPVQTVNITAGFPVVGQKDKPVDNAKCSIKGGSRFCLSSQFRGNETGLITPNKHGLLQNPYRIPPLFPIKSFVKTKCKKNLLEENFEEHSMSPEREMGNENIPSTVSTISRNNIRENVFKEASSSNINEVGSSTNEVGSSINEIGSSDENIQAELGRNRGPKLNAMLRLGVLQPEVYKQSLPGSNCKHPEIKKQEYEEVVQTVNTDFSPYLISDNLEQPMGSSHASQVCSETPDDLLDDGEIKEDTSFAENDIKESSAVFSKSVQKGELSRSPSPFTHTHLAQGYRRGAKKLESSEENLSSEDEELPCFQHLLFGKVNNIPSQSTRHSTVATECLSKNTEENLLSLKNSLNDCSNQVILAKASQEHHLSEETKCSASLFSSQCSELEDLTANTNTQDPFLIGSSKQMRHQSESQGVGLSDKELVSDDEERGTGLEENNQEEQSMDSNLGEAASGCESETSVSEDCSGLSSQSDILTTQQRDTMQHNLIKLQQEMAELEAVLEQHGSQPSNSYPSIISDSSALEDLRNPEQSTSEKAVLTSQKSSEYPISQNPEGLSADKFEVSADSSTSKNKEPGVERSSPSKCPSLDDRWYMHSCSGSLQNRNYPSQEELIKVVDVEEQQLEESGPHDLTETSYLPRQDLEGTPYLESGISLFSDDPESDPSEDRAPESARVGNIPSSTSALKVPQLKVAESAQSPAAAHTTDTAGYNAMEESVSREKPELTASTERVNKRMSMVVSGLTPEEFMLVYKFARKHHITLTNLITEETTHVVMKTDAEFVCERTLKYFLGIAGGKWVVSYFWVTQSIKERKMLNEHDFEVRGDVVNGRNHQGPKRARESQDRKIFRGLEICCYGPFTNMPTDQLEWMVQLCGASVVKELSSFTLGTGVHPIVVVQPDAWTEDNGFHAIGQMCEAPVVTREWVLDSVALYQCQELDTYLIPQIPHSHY

[18] = biological target: T3, Breast cancer type 1 susceptibility protein; assay: Affinity Biochemical interaction: (Fluorescence polarisation assay) EUB0002518a BRCA1; assay type: functional; set-up: mode of action Inhibitor, recommended concentration 1 uM
[19] = biological target: Synaptic vesicular amine transporter (Homo sapiens, UniProt Q05940); assay: Affinity Biochemical interaction: (Inhibition of radiolabelled [3H]dopamine uptake) EUB0002590aCl SLC18A2; set-up: mode of action Inhibitor, recommended concentration 1 uM
Synaptic vesicular amine transporter, sequence (Q05940 whole entry): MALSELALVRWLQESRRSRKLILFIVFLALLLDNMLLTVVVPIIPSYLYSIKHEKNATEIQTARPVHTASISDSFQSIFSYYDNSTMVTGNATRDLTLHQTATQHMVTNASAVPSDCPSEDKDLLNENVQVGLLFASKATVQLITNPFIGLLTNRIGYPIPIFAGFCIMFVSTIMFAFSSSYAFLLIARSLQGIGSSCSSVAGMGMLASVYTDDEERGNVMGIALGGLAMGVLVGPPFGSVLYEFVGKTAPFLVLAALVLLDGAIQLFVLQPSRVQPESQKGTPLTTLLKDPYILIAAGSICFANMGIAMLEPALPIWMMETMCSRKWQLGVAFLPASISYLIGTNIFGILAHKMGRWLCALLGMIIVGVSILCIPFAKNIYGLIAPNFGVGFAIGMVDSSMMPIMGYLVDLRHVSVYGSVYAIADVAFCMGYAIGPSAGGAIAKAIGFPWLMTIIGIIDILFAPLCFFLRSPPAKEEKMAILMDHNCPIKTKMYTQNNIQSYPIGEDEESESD

SMILES: NC(=O)C1CN(CCCCC(c2ccc(F)cc2)c2ccc(F)cc2)CCN1CC(=O)Nc1c(Cl)cc(N)cc1Cl (centres undefined) [DRAFLAZINE]
- Ki [3]: 0.00028 µM
- Ki [4]: 0.00094 µM

SMILES: O=C(N(CCc1ccccc1)C1CCCCC1)n1ncc(-c2ccc(OC(F)(F)F)cc2)n1
- IC50 [5]: 0.0013 µM

SMILES: C#CCNC(=O)[C@H](CO)NC(=O)[C@H](CCCCN(CC)CC)NC(=O)[C@H](NC(=O)[C@@H](NC(=O)c1ccc(Oc2ccccc2)cc1)C1CCCC1)[C@@H](C)CC ({Benzoyl(4-OPh)}-[Gly(cPent)][d(aIle)][Lys(Et2)]S-{NH(propargyl)})
- Kd [6]: 0.5 µM
- Kd [7]: 0.8 µM
- Kd [8]: 0.7 µM

SMILES: COc1cc(C(=O)N2C[C@H](N)CC[C@@H]2C)cc2nc(-c3cc4cccnc4n3CC3CC3)n(C)c12
- IC50 [11]: 0.098 µM

SMILES: Nc1ccc(-c2cccs2)cc1NC(=O)c1ccc(NC=O)cc1
- IC50 [12]: 0.04 µM
- IC50 [13]: 0.1 µM

SMILES: O=C(CNC(=O)[C@H](COP(=O)(O)O)NC(=O)CCc1c[nH]c2ccccc12)NCCCCc1ccccc1
- Kd [17]: 0.3 µM
- IC50 [18]: 0.31 µM

More lines, now with the values ahead:

- IC50 [1]: 0.113 µM
- IC50 [2]: 0.164 µM
SMILES: CC(C)NC(=O)c1ccc(OC(F)F)c(OCC2CC2)c1

- IC50 [9]: 0.6 µM
SMILES: Cc1cc(C(=O)CN2CCCCC2)c(C)n1-c1ccc(Cl)cc1

- IC50 [10]: < 0.001 µM
SMILES: N#Cc1ccc(-c2c3n(c4cccnc24)CCN(C2CC2)C3=O)cc1F [PF-06445974]

- IC50 [14]: 0.003 µM
SMILES: Nc1ncnc2nc(-c3ccc(N4CCOCC4)nc3)cc(-c3cccc(Br)c3)c12

- IC50 [15]: 0.0027 µM
SMILES: Cc1nnn(C)c1-c1cnc2c3cc4cnn(C)c4cc3n([C@H](c3ccccc3)C3CCOCC3)c2c1

- IC50 [16]: 0.0976 µM
SMILES: Cn1c(OC[C@H]2CC[C@H](C(F)(F)F)CC2)nn2c(C3CCOCC3)ncc2c1=O

- Ki [19]: 0.029 µM
SMILES: COc1ccc(CC[C@H]2CCC[C@@H](CCc3ccc(OC)cc3)N2C[C@@H](O)CO)cc1
